The values below come from patent publication US20250042911A1, “NOVEL BENZOPYRAN DERIVATIVE AND USE THEREOF” (SPARK BIOPHARMA, INC, priority 2021, published 2025).

A value given as a limit tells only on which side of the number the result lay.

This assay deals with human M2 macrophages. Nature of the assay: Inhibition of human M2 macrophage activity, hCCL22 in culture supernatant by ELISA. Format: cell-based. The note with it: for inhibition at 10 µM: Macrophage, hCCL22 inhibitory activity at 10 μM, 72 hours; for EC50: hCCL22 secretion, THP-1 derived M2-like macrophages, compound present during 72 hours of differentiation. As for the experimental part:
To obtain human M2 macrophages, human monocytes (THP-1 monocyte, CD4 expression) were stabilized in a 96-well plate for 24 hours and then incubated in culture media containing 100 ng/mL phorbal 12-myristate-13-acetate (PMA; Sigma, P8139) for 24 hours to differentiate into M0 macrophages (macrophage-like phenotype). It was confirmed that differentiated M0 macrophages had reduced CD4 expression and expressed CD11b. M0 macrophages in the plate well were washed once with culture media and incubated in culture media containing 25 ng/mL hIL-4 (Peprotech, 200-04-50) and 25 ng/mL hIL-13 (Peprotech, 200-13-50) for 72 hours to differentiate into M2-like macrophages. Test compounds were diluted by concentration in M2 differentiation media and treated simultaneously during a differentiation period of 72 hours. The inhibitory effect of the test compounds on M2 macrophages was determined by measuring hCCL22 in the medium culture supernatant cultured for 72 hours using an ELISA assay (R&D system, DMD00). The results of the activity measurements are represented in Table 3 (EC50), Table 4 ([…] inhibitory activity at 5 μM) and Table 5 (hCCL22 inhibitory activity at 10 μM).

Broadly, the inhibition is how much of the control response was suppressed. A low value points to a response near the control. What is called EC50 is the concentration at which the effect is half-maximal. Regarding `CCN(CC)c1ccc2c(c1)OC(C)(C)C1=CCn3c(=O)n(-c4ccc(C(C)=O)cc4)c(=O)n3C12` (stereo not shown) [Example 33, 2-(4-acetylphenyl)-10-(diethylamino)-7,7-dimethyl-5,12b-dihydro-1H,7H-chromeno[4,3-c][1,2,4]triazolo[1,2-a]pyridazine-1,3(2H)-dione], the inhibition at 10 µM worked out at 96.5% and the response was half-maximal at 5.8 µM (EC50).

Consider `CC(=O)c1ccc(-n2c(=O)n3n(c2=O)C2C(=CC3)C(C)(C)Oc3cc(-c4cc(C)nn4C)ccc32)cc1` (stereo not shown) [Example 38, 2-(4-acetylphenyl)-10-(1,3-dimethyl-1H-pyrazol-5-yl)-7,7-dimethyl-5,12b-dihydro-1H,7H-chromeno[4,3-c][1,2,4]triazolo[1,2-a]pyridazine-1,3(2H)-dione], for which the EC50 stood at 31.6 µM.

Compound `CC(=O)c1ccc(-n2c(=O)n3n(c2=O)C2C(=CC3)C(C)(C)Oc3cc(OCP(=O)(O)O)ccc32)cc1` (stereo not shown) [Example 115, disodium (((2-(4-acetylphenyl)-7,7-dimethyl-1,3-dioxo-2,3,5,12b-tetrahydro-1H,7H-chromeno[4,3-c][1,2,4]triazolo[1,2-a]pyridazin-10-yl)oxy)methyl)phosphonate] showed an EC50 of over 80 µM.

On to `CN1CCN(c2ccc3c(c2)OC(C)(C)C2=CCn4c(=O)n(-c5ccc(C(F)(F)F)cc5)c(=O)n4C23)CC1` (stereo not shown) [Example 49, 7,7-dimethyl-10-(4-methylpyrerazin-1-yl)-2-(4-(trifluoromethyl)phenyl)-5,12b-dihydro-1H,7H-chromeno[4,3-c][1,2,4]triazolo[1,2-a]pyridazine-1,3(2H)-dione], for which a half-maximal response (EC50) required 12.1 µM.

`CC(=O)c1ccc(-n2c(=O)n3n(c2=O)C2C(=CC3)C(C)(C)Oc3cc(N4CCCC4)ccc32)cc1` (stereo not shown) [Example 34, 2-(4-acetylphenyl)-7,7-dimethyl-10-(pyrrolidin-1-yl)-5,12b-dihydro-1H,7H-chromeno[4,3-c][1,2,4]triazolo[1,2-a]pyridazine-1,3(2H)-dione] yielded an inhibition at 10 µM of 73.7% and an EC50 of 7.7 µM.

Take `CC(=O)c1ccc(-n2c(=O)n3n(c2=O)C2C(=CC3)C(C)(C)Oc3cc(N(C)C(C)C)ccc32)cc1` (stereo not shown) [Example 45, 2-(4-acetylphenyl)-10-(isopropyl(methyl)amino)-7,7-dimethyl-5,12b-dihydro-1H,7H-chromeno[4,3-c][1,2,4]triazolo[1,2-a]pyridazine-1,3(2H)-dione]: the EC50 turned out to be 9.1 µM.

For the compound `CC(=O)c1ccc(-n2c(=O)n3n(c2=O)C2C(=CC3)C(C)(C)Oc3cc(NCC(F)(F)F)ccc32)cc1` (stereo not shown) [Example 17, 2-(4-acetylphenyl)-7,7-dimethyl-10-((2,2,2-trifluoroethyl)amino)-5,12b-dihydro-1H,7H-chromeno[4,3-c][1,2,4]triazolo[1,2-a]pyridazine-1,3(2H)-dione], the 50% effective concentration (EC50) came to 8.2 µM.

Regarding `CC(=O)c1ccc(-n2c(=O)n3n(c2=O)C2C(=CC3)C(C)(C)Oc3cc(N(C(C)C)C(C)C)ccc32)cc1` (stereo not shown) [Example 47, 2-(4-acetylphenyl)-10-(diisopropylamino)-7,7-dimethyl-5,12b-dihydro-1H,7H-chromeno[4,3-c][1,2,4]triazolo[1,2-a]pyridazine-1,3(2H)-dione], the EC50 was found to be 8.1 µM.

In turn, `CC(=O)c1ccc(-n2c(=O)n3n(c2=O)C2C(=CC3)C(C)(C)Oc3c2cc(Cl)c(N)c3Cl)cc1` (stereo not shown) [Example 31, 2-(4-acetylphenyl)-10-amino-9,11-dichloro-7,7-dimethyl-5,12b-dihydro-1H,7H-chromeno[4,3-c][1,2,4]triazolo[1,2-a]pyridazine-1,3(2H)-dione] came in with an inhibition at 10 µM of 97.2% and an EC50 of 2 µM.

The compound `CC(=O)c1ccc(-n2c(=O)n3n(c2=O)C2C(=CC3)C(C)(C)Oc3cc(OC(=O)N[C@@H](CCCNC(=N)N)C(=O)O)ccc32)cc1` (stereo partly drawn) [Example 78, (((2-(4-acetylphenyl)-7,7-dimethyl-1,3-dioxo-2,3,5,12b-tetrahydro-1H,7H-chromeno[4,3-c][1,2,4]triazolo[1,2-a]pyridazin-10-yl)oxy)carbonyl)-L-arginine 2,2,2-trifluoroacetic acid] had an EC50 of 5.2 µM.
